# Key:
# [1] = molecular target: T1, EZH2 (Homo sapiens, UniProt Q15910); test: Western blot of EZH2 protein level in MV4; format: cell-based; settings: 11 cells, 24 h treatment, all tested concentrations (Fig. 8A, 8C)
# Target sequence in this assay (Q15910 whole entry): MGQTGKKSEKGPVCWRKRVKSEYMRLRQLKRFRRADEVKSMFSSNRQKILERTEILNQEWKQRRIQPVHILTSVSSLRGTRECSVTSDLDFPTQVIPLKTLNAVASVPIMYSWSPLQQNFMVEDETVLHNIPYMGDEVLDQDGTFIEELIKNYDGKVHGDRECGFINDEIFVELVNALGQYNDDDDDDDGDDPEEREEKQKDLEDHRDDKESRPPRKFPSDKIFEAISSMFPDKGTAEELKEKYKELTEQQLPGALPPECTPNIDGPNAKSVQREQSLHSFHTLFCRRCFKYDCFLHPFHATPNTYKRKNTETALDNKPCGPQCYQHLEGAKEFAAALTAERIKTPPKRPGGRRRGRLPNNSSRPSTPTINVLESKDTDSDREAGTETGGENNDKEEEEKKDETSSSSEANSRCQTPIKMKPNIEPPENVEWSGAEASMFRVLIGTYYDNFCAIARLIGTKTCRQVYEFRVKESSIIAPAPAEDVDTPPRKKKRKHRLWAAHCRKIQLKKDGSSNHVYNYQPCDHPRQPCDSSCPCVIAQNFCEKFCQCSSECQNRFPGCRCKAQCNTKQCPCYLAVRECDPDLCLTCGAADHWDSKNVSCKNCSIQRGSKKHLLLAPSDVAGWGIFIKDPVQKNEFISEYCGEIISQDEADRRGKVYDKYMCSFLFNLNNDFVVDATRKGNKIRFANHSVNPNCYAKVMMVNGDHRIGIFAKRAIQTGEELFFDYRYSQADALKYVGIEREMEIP
# Target sequence in this assay (O75530 2-441 partner limits assumed): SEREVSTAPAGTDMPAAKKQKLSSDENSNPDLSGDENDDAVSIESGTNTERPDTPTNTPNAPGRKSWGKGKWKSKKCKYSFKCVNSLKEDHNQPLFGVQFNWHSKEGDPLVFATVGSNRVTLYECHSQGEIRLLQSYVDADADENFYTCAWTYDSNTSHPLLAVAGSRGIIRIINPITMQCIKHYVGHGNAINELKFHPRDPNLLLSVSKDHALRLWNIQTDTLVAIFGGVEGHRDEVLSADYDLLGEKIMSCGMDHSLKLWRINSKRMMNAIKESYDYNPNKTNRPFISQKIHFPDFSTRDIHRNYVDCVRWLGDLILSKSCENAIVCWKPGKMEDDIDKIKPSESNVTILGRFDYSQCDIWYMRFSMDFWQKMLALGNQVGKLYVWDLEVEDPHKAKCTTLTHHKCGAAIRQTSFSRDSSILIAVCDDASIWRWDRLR
# Target sequence in this assay (Q15022 whole entry partner): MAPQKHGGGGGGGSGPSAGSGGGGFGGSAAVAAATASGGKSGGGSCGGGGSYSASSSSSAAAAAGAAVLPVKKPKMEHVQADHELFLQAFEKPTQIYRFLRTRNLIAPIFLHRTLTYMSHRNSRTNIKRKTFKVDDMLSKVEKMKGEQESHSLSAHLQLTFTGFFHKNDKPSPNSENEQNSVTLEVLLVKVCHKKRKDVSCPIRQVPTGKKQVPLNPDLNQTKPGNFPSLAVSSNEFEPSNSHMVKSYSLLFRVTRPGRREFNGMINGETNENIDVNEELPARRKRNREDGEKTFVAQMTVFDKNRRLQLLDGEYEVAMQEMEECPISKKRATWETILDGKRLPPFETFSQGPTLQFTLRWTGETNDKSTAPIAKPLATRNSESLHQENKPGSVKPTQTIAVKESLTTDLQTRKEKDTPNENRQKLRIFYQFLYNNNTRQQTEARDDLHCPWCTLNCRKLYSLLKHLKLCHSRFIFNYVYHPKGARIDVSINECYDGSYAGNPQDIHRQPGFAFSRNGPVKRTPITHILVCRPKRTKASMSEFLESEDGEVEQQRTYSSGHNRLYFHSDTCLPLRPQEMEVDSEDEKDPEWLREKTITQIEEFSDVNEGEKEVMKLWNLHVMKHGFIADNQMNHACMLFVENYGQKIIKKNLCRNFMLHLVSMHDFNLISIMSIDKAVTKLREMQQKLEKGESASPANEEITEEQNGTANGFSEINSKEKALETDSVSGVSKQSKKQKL
# [2] = molecular target: T1, EZH2; test: Western blot of EZH2 protein level in EOL-1 cells; format: cell-based; settings: for EZH2 degradation (EZH2 protein level): 24 h treatment
# Target sequence in this assay (Q15910 whole entry): as the sequence (Q15910 whole entry) above
# Target sequence in this assay (O75530 2-441 partner limits assumed): as the sequence (O75530 2-441 partner limits assumed) above
# Target sequence in this assay (Q15022 whole entry partner): as the sequence (Q15022 whole entry partner) above
# [3] = system: BT549 cells; test: Cell viability WST-8; format: cell-based
# [4] = system: MDA-MB-468 cells; test: Cell viability WST-8; format: cell-based
# [5] = system: H3K27me3; test: Western blot of H3K27me3 mark in EOL-1 cells; format: cell-based; settings: 24 h treatment (Fig. 4A)
# [6] = system: EED; test: Western blot of EED in EOL-1 cells; format: cell-based; settings: 24 h treatment (Fig. 4B)
# [7] = molecular target: T2, EZH1 (Homo sapiens, UniProt Q92800); test: Western blot of EZH1 degradation; format: cell-based; settings: Fig. S3
# Target sequence in this assay (Q92800 whole entry): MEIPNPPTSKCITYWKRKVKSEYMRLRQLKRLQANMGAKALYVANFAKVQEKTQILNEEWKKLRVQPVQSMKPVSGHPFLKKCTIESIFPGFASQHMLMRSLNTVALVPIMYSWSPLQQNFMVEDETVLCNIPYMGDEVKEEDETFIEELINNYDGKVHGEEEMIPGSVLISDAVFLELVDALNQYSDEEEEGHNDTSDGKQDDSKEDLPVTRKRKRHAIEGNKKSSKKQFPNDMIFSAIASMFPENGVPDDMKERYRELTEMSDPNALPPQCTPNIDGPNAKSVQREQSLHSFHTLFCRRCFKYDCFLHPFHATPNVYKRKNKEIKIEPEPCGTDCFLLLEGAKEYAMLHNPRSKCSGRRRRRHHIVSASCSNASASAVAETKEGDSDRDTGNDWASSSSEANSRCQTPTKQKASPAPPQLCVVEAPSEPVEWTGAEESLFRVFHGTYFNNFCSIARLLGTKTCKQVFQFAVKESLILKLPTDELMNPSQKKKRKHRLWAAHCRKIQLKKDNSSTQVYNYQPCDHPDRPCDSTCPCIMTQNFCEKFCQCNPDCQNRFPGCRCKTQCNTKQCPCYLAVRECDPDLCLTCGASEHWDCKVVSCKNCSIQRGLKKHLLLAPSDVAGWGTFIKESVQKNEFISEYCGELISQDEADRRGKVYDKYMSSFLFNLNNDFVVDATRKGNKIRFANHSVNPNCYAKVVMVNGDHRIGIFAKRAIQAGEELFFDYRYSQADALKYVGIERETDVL
# Target sequence in this assay (O75530 2-441 partner limits assumed): as the sequence (O75530 2-441 partner limits assumed) above
# Target sequence in this assay (Q15022 whole entry partner): as the sequence (Q15022 whole entry partner) above
# [8] = system: panel of 20 protein methyltransferases; test: Radioactive methyltransferase selectivity panel; format: biochemical; settings: 10 μM, two replicates
# [9] = molecular target: T1, EZH2; test: EZH2 methyltransferase inhibition assay; format: biochemical; settings: Fig. S2A
# [10] = molecular target: T2, EZH1; test: EZH1 methyltransferase inhibition assay; format: biochemical; settings: Fig. S2B
# [11] = system: EOL-1 cells; test: Cell viability WST-8; format: cell-based
# [12] = system: MV4; 11 cells; test: Cell viability WST-8; format: cell-based
# [13] = system: K562 cells; test: Cell viability assay, K562; format: cell-based; settings: K562 cells (insensitive to EZH2 KO), Fig. S4
# [14] = molecular target: T1, EZH2; test: Western blot of EZH2 protein level in RS4; format: cell-based; settings: 11 cells, 24 h treatment, 0.1 and 0.3 μM
# Target sequence in this assay (Q15910 whole entry): as the sequence (Q15910 whole entry) above
# Target sequence in this assay (O75530 2-441 partner limits assumed): as the sequence (O75530 2-441 partner limits assumed) above
# Target sequence in this assay (Q15022 whole entry partner): as the sequence (Q15022 whole entry partner) above
# [15] = molecular target: T1, EZH2; test: Western blot of EZH2 protein level in BT549 cells; format: cell-based; settings: 48 h treatment
# Target sequence in this assay (Q15910 whole entry): as the sequence (Q15910 whole entry) above
# Target sequence in this assay (O75530 2-441 partner limits assumed): as the sequence (O75530 2-441 partner limits assumed) above
# Target sequence in this assay (Q15022 whole entry partner): as the sequence (Q15022 whole entry partner) above
# [16] = molecular target: T1, EZH2; test: Western blot of EZH2 protein level in MDA-MB-468 cells; format: cell-based; settings: 48 h treatment
# Target sequence in this assay (Q15910 whole entry): as the sequence (Q15910 whole entry) above
# Target sequence in this assay (O75530 2-441 partner limits assumed): as the sequence (O75530 2-441 partner limits assumed) above
# Target sequence in this assay (Q15022 whole entry partner): as the sequence (Q15022 whole entry partner) above
# [17] = system: BT549 in vitro spheroids; test: Bio-Assembler 3D in vitro spheroid TNBC model; format: cell-based; settings: 5 d treatment
# [18] = Mouse pharmacokinetic study
# [19] = Tolerability observed in the mouse PK study; settings: mice, single IP injection 50 mg/kg
compound,measurement,setting,value
"(2R,4S)-1-((S)-2-(11-(3-(4-((3’-(((4,6-dimethyl-2-oxo-1,2-dihydropyridin-3-yl)methyl)carbamoyl)-5’-(ethyl(tetrahydro-2H-pyran-4-yl)amino)-4′-methyl-[1,1′-biphenyl]-4-yl)methyl)piperazin-1-yl)propanamido)undecanamido)-3,3-dimethylbutanoyl)-4-hydroxy-N-(4-(4-methylthiazol-5-yl)benzyl)pyrrolidine-2-carboxamide [MS8847N2]",EZH2 degradation,[1],did not induce EZH2 degradation
"CCN(c1cc(-c2ccc(CN3CCN(CCC(=O)NCCCCCCCC(=O)N[C@H](C(=O)N4C[C@H](O)C[C@H]4C(=O)NCc4ccc(-c5scnc5C)cc4)C(C)(C)C)CC3)cc2)cc(C(=O)NCc2c(C)cc(C)[nH]c2=O)c1C)C1CCOCC1 [Compound 5, (2S,4R)-1-((S)-2-(8-(3-(4-((3’-(((4,6-dimethyl-2-oxo-1,2-dihydropyridin-3-yl)methyl)carbamoyl)-5’-(ethyl(tetrahydro-2H-pyran-4-yl)amino)-4′-methyl-[1,1′-biphenyl]-4-yl)methyl)piperazin-1-yl)propanamido)octanamido)-3,3-dimethylbutanoyl)-4-hydroxy-N-(4-(4-methylthiazol-5-yl)benzyl)pyrrolidine-2-carboxamide]",EZH2 degradation (EZH2 protein level),[2]; SAR study (Fig. 3),partial degradation
"CCN(c1cc(-c2ccc(CN3CCOCC3)cc2)cc(C(=O)NCc2c(C)cc(C)[nH]c2=O)c1C)C1CCOCC1 [EPZ-6438, Tazemetostat]",effect on cell growth,[3],no effect
same,effect on cell growth,[4],no effect
"CCN(c1cc(-c2ccc(CN3CCN(CCC(=O)NCCCCCCCCCC(=O)N[C@H](C(=O)N4C[C@H](O)C[C@H]4C(=O)NCc4ccc(-c5scnc5C)cc4)C(C)(C)C)CC3)cc2)cc(C(=O)NCc2c(C)cc(C)[nH]c2=O)c1C)C1CCOCC1 [Compound 7, (2S,4R)-1-((S)-2-(10-(3-(4-((3’-(((4,6-dimethyl-2-oxo-1,2-dihydropyridin-3-yl)methyl)carbamoyl)-5’-(ethyl(tetrahydro-2H-pyran-4-yl)amino)-4′-methyl-[1,1′-biphenyl]-4-yl)methyl)piperazin-1-yl)propanamido)decanamido)-3,3-dimethylbutanoyl)-4-hydroxy-N-(4-(4-methylthiazol-5-yl)benzyl)pyrrolidine-2-carboxamide]",EZH2 degradation (EZH2 protein level),[2]; 0.1 μM (Fig. 3),reduced the EZH2 protein level completely
same,EZH2 degradation (EZH2 protein level),[2]; 1 μM (Fig. 3),less profoundly
"CCN(c1cc(-c2ccc(CN3CCN(CCC(=O)NCCCCCCCCCCC(=O)N[C@H](C(=O)N4C[C@H](O)C[C@H]4C(=O)NCc4ccc(-c5scnc5C)cc4)C(C)(C)C)CC3)cc2)cc(C(=O)N(C)Cc2c(C)cc(C)n(C)c2=O)c1C)C1CCOCC1 [MS8847N1, (2S,4R)-1-((S)-2-(11-(3-(4-((3’-(ethyl(tetrahydro-2H-pyran-4-yl)amino)-4′-methyl-5’-(methyl((1,4,6-trimethyl-2-oxo-1,2-dihydropyridin-3-yl)methyl)carbamoyl)-[1,1′-biphenyl]-4-yl)methyl)piperazin-1-yl)propanamido)undecanamido)-3,3-dimethylbutanoyl)-4-hydroxy-N-(4-(4-methylthiazol-5-yl)benzyl)pyrrolidine-2-carboxamide]",EZH2 degradation,[1],did not induce EZH2 degradation
"CCN(c1cc(-c2ccc(CN3CCN(CCC(=O)NCCCCCCCCCCC(=O)N[C@H](C(=O)N4C[C@H](O)C[C@H]4C(=O)NCc4ccc(-c5scnc5C)cc4)C(C)(C)C)CC3)cc2)cc(C(=O)NCc2c(C)cc(C)[nH]c2=O)c1C)C1CCOCC1 [MS8847, (2S,4R)-1-((S)-2-(11-(3-(4-((3’-(((4,6-dimethyl-2-oxo-1,2-dihydropyridin-3-yl)methyl)carbamoyl)-5’-(ethyl(tetrahydro-2H-pyran-4-yl)amino)-4′-methyl-[1,1′-biphenyl]-4-yl)methyl)piperazin-1-yl)propanamido)undecanamido)-3,3-dimethylbutanoyl)-4-hydroxy-N-(4-(4-methylthiazol-5-yl)benzyl)pyrrolidine-2-carboxamide]",time at which EZH2 degradation started,[2]; 300 nM,8 h
same,time to maximum EZH2 degradation,[2]; 300 nM,≤ 24 h
same,EZH2 degradation,"[2]; 24 h, 0.1 and 0.3 μM, comparison of five degraders (Fig. 7A)",complete degradation
same,EZH2 degradation,"[2]; 24 h treatment at the indicated concentration (Fig. 4A, Fig. 6A)",effectively induced EZH2 degradation
same,EZH2 degradation (EZH2 protein level),[2]; 0.1 μM (Fig. 3),complete EZH2 degradation
same,EZH2 degradation (EZH2 protein level),[2]; 1 μM (Fig. 3),complete EZH2 degradation
same,reduction of the H3K27me3 mark,[5],reduced the H3K27me3 mark
same,EED degradation,[6],potently degraded
same,EZH1 degradation,[7],does not degrade
same,inhibition of any of the 20 methyltransferases,[8],≤ 50%
same,inhibition of the enzymatic activity of EZH2,[9],inhibits
same,inhibition of the enzymatic activity of EZH1,[10],inhibits
same,fold more potent than MS8815 (anti-proliferative IC50),[11],more than 3 fold
same,fold more potent than U3i (cell growth IC50),[12],over 2 fold
same,cell growth inhibition,[13],did not inhibit cell growth
same,EZH2 degradation,[1],near-complete degradation
same,EZH2 degradation,[14],induced EZH2 degradation
same,EZH2 degradation,[15],potent EZH2 degradation
same,EZH2 degradation,[16],potent EZH2 degradation
same,cell viability of BT549 cells in spheroids (Cell Titer Glo 3D),[17],significantly reduced
same,size of BT549 in vitro spheroids,[17]; compared to DMSO-treated control tumors,significantly reduced
same,time at which Cmax was observed,"[18]; male Swiss albino mice, single IP injection 50 mg/kg, HCl form",4 h
same,concentration at 9 h,"[18]; male, Swiss Albino, mouse, plasma, ip, 50 mg/kg",> 1000 nM
same,clinical signs of toxicity,[19],did not exhibit obvious clinical signs of toxicity
"CCN(c1cc(-c2ccc(CN3CCN(CCC(=O)NCCCCCCCCC(=O)N[C@H](C(=O)N4C[C@H](O)C[C@H]4C(=O)NCc4ccc(-c5scnc5C)cc4)C(C)(C)C)CC3)cc2)cc(C(=O)NCc2c(C)cc(C)[nH]c2=O)c1C)C1CCOCC1 [Compound 6, (2S,4R)-1-((S)-2-(9-(3-(4-((3’-(((4,6-dimethyl-2-oxo-1,2-dihydropyridin-3-yl)methyl)carbamoyl)-5’-(ethyl(tetrahydro-2H-pyran-4-yl)amino)-4′-methyl-[1,1′-biphenyl]-4-yl)methyl)piperazin-1-yl)propanamido)nonanamido)-3,3-dimethylbutanoyl)-4-hydroxy-N-(4-(4-methylthiazol-5-yl)benzyl)pyrrolidine-2-carboxamide]",EZH2 degradation (EZH2 protein level),[2]; SAR study (Fig. 3),partial degradation

# — article PMC10901292 (European journal of medicinal chemistry, 2024)
